In assay [1] the test system is c-myc promoter i-motif (DNA, i motif) CCCCACCTTCCCCACCCTCCCCACCCTCCCC
The assay can be described thus: fluorescent displacement (FID). Particulars: 100 mM KCl; 1 × BPES pH 5.5; tracer 1 μM G59 displaced, 2 μM DNA; 5 eq (5 μM) 3be.

Assay [2] deals with c-myc-C25T (DNA, i motif) CCCCACCTTCCCCACCCTCCCCACTCTCCCC
The assay can be described thus: fluorescence enhancement. Particulars: 100 mM KCl; 1 × BPES pH 5.5.

Assay [3] has as its system c-myc-C7A (DNA, i motif) CCCCACATTCCCCACCCTCCCCACCCTCCCC
The assay can be described thus: fluorescence enhancement. The note with it: 100 mM KCl; 1 × BPES pH 5.5.

Assay [4] has as its system c-myc promoter i-motif (DNA, i motif) CCCCACCTTCCCCACCCTCCCCACCCTCCCC
The assay can be described thus: fluorescence enhancement. The note with it: 100 mM KCl; 1 × BPES pH 5.5.

The test system is the same in assay [5]. The assay can be described thus: ITC. The note with it: 100 μM G59 injected into 4 μM DNA; KD = 1/Ka (Ka 5.94×10^5 M-1).
The test system of assay [6] is c-myc-C16A (DNA, i motif) CCCCACCTTCCCCACACTCCCCACCCTCCCC
The assay can be described thus: fluorescence enhancement. The note with it: 100 mM KCl; 1 × BPES pH 5.5.

Assay [7] has as its system c-myc-C7T (DNA, i motif) CCCCACTTTCCCCACCCTCCCCACCCTCCCC
The assay can be described thus: fluorescence enhancement. Particulars: 100 mM KCl; 1 × BPES pH 5.5.

Assay [8] deals with c-myc-C16G (DNA, i motif) CCCCACCTTCCCCACGCTCCCCACCCTCCCC
The assay can be described thus: fluorescence enhancement. The note with it: 100 mM KCl; 1 × BPES pH 5.5.

Assay [9] deals with c-myc-C7G (DNA, i motif) CCCCACGTTCCCCACCCTCCCCACCCTCCCC
The assay can be described thus: fluorescence enhancement. The note with it: 100 mM KCl; 1 × BPES pH 5.5.

Assay [10] concerns SS26 (DNA, single strand) ATACGATGCTTCACGGTGCTATCTG
Kind of assay: fluorescence titration. The note with it: 100 mM KCl; 20 mM Tris-HCl pH 7.4; also unstained in PAGE.

In assay [11] the test system is c-myc-C16T (DNA, i motif) CCCCACCTTCCCCACTCTCCCCACCCTCCCC
Kind of assay: fluorescence enhancement. The note with it: 100 mM KCl; 1 × BPES pH 5.5.

The subject of assay [12] is c-myc promoter i-motif (DNA, i motif) CCCCACCTTCCCCACCCTCCCCACCCTCCCC
The assay can be described thus: CD melting. The note with it: 100 mM KCl; 1 × BPES pH 5.5; 2 μM DNA, 10 μM G59; Tm 53.1 to 59.9 °C.

The subject of assay [13] is DS26 (DNA, duplex) CAATCGGATCGAATTCGATCCGATTG
Kind of assay: fluorescence titration. Particulars: 100 mM KCl; 20 mM Tris-HCl pH 7.4; also unstained in PAGE.

For assay [14], the system named is c-myc-C25G (DNA, i motif) CCCCACCTTCCCCACCCTCCCCACGCTCCCC
Kind of assay: fluorescence enhancement. The note with it: 100 mM KCl; 1 × BPES pH 5.5.

Assay [15] relates to c-myc-C25A (DNA, i motif) CCCCACCTTCCCCACCCTCCCCACACTCCCC
Kind of assay: fluorescence enhancement. Particulars: 100 mM KCl; 1 × BPES pH 5.5.

In assay [16] the test system is 5'-biotin c-myc (i-motif) (DNA, i motif) CCCCACCTTCCCCACCCTCCCCACCCTCCCC
Kind of assay: SPR. The note with it: 100 mM KCl; 20 mM MES pH 5.5, 0.05% Tween-20, 25 °C; DNA immobilised.

In assay [17] the test system is 5'-biotin c-myc G-quadruplex (DNA, G4) TTGAGGGTGGGTAGGGTGGGTAAA
Kind of assay: SPR. The note with it: 100 mM KCl; 20 mM Tris-HCl pH 7.4, 25 °C; DNA immobilised.

The subject of assay [18] is c-myc promoter i-motif (DNA, i motif) CCCCACCTTCCCCACCCTCCCCACCCTCCCC
The assay can be described thus: fluorescent displacement (FID), microplate reader. Particulars: 100 mM KCl; 1 × BPES; tracer G59 displaced.

The results in this text go back to article PMC8998492 (2022).

`c1ccc2c(c1)c1cc(-c3cn(CCN4CCCC4)nn3)ccc1n2CCN1CCCC1`: the relative replacement ratio in assay [1] worked out at 42.09%.
As a reminder, the KD is the constant that tells how readily two partners part at equilibrium. Lower therefore signals higher affinity. As usually defined, the ΔTm is the shift of the melting midpoint relative to a reference. As to `O=C1c2cccc3c(-c4ccc5c(c4)c4cc(-c6ccc7c8c(cccc68)C(=O)N(CCN6CCCC6)C7=O)ccc4n5CCN4CCCC4)ccc(c23)C(=O)N1CCN1CCCC1`, the FI/F0 turned out to be 17.92 in assay [2]; 13.35 in [3]; 17.98 in [4]; 15.2 in assay [6]; 18.35 in assay [7]; 6.03 in [8]. Besides, the FI/F0 stood at 5.44 in assay [9], 18.23 in assay [11], 6.59 in [14] and 17.15 in [15]. Also, the KD in [5] was 1.68 µM. The binding entry in [10] and in assay [13] was “weak” each time. For the same compound, the ΔTm in assay [12] stood at 6.8 °C.
Consider `C[C@H]1O[C@@H](O[C@H]2CC[C@@]3(C)[C@@H](CC[C@]4(C)[C@@H]3C=CC3=C5CC(C)(C)CC[C@]5(CO)[C@H](O)C[C@]34C)[C@]2(C)CO)[C@H](O)[C@@H](O[C@@H]2O[C@H](CO)[C@@H](O)[C@H](O)[C@H]2O)[C@H]1O`, for which the results for the KD in [16] and in [17] were 9.52 µM and 46.2 µM, respectively. In addition, the binding entry in [18] is listed as “yes”.
